Reference: ChEMBL document CHEMBL1135579, “Serine-threonine protein phosphatase inhibitors: development of potential therapeutic strategies” (J Med Chem, 2002)
pIC50, pKi: −log10 of the molar value.

Columns and labels:
[1] = Exogenous inhibition concentration of Serine/threonine protein phosphatase 2B (PP2B)
[2] = Exogenous inhibition of Serine/threonine protein phosphatase 1 (PP1); set-up: species or system Homo sapiens
[3] = Selectivity for interaction at Serine/threonine protein phosphatase 2B (PP2B); conditions: read-out: Ki app
[4] = Inhibition of growth after 72 hr continuous exposure to test compounds in Ovarian A2780 tumor cell lines; assay type: functional; conditions: A2780, 72 h
[5] = Inhibition of growth after 72 hr continuous exposure to test compounds in Osteosarcoma 143B tumor cell lines; assay type: functional; conditions: Homo sapiens
[6] = Inhibition of growth after 72 hr continuous exposure to test compounds in Ovarian ADDP tumor cell lines; assay type: functional
[7] = molecular target: T1, Serine/threonine-protein phosphatase PP1-gamma catalytic subunit (Homo sapiens, UniProt P36873); experiment: Inhibition of Serine/threonine protein phosphatase 1 by anhydride modified Cantharidin analogues
Target sequence in this assay (P36873 whole entry): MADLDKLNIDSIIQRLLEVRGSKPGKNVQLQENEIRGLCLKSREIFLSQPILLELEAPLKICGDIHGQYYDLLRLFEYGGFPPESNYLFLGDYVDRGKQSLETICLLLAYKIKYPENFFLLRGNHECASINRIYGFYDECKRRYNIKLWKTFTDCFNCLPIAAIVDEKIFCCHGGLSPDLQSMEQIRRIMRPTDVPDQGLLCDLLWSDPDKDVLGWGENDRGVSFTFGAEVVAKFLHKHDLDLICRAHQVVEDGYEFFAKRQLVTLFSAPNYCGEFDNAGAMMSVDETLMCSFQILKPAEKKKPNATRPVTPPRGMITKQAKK

[8] = molecular target: T2, Serine-threonine protein phosphatase 2A regulatory subunit (Gallus gallus, UniProt Q8AWE3); experiment: Inhibition of Serine/threonine protein phosphatase 2A by anhydride modified Cantharidin analogues
T2 sequence (Q8AWE3 whole entry): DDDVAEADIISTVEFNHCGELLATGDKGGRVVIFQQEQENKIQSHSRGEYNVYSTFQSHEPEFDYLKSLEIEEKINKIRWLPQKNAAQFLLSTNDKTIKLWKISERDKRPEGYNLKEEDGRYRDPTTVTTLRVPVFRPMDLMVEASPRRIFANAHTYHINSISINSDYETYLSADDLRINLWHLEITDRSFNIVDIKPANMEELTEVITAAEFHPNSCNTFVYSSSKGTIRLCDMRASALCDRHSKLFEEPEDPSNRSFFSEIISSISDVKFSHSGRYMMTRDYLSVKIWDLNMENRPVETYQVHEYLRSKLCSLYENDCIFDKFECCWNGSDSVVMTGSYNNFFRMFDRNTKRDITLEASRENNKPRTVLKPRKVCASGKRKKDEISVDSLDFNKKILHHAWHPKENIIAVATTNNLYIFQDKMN

[9] = molecular target: T3, Serine-threonine protein phosphatase 2A regulatory subunit (Gallus gallus) (UniProt Q8AWE3); experiment: Tested for selective inhibition of Serine/threonine protein phosphatase 2A (PP2A) with respect to inhibition of Serine/threonine protein phosphatase 1 (PP1)
T3 sequence (whole entry): T2 sequence (Q8AWE3 whole entry)

[10] = Inhibition of growth after 72 hr continuous exposure to test compounds in Colon HCT 116 tumor cell lines; assay type: functional; conditions: Homo sapiens, HCT-116, 72 h
[11] = Inhibition of growth after 72 hr continuous exposure to test compounds in colon HT-29 tumor cell lines; assay type: functional; conditions: Homo sapiens, HT-29, 72 h
[12] = molecular target: T1, Serine/threonine-protein phosphatase PP1-gamma catalytic subunit; experiment: Inhibition of Serine/threonine protein phosphatase 1 (PP1) mutants by natural toxins in wild type
Target sequence in this assay (P36873 2-323 limits assumed, change not shown): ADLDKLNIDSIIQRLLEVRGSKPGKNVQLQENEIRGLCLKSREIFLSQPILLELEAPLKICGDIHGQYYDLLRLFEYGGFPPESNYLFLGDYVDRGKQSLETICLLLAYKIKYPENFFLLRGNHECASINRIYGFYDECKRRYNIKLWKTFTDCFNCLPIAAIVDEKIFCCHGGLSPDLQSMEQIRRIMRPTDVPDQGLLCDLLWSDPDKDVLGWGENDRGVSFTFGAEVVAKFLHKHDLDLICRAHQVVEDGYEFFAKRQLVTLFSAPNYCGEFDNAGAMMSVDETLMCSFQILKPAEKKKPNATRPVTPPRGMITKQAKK

[13] = Exogenous inhibition concentration of Serine/threonine protein phosphatase 2C (PP2C); NI means no inhibition.
[14] = Exogenous inhibition concentration of Serine/threonine protein phosphatase 4 (PP4)
[15] = molecular target: Serine/threonine-protein phosphatase PP1-gamma catalytic subunit (Homo sapiens, UniProt P36873, H248N); experiment: Inhibition of Serine/threonine protein phosphatase 1 (PP1) mutant type H248N by compound was evaluated
Chain of Serine/threonine-protein phosphatase PP1-gamma catalytic subunit (Homo sapiens, UniProt P36873, H248N) (P36873 2-323 H248N limits assumed): as the sequence (P36873 2-323 limits assumed, change not shown) above, with H247N counted along it

[16] = molecular target: Serine/threonine-protein phosphatase PP1-gamma catalytic subunit (Homo sapiens, UniProt P36873, C127S); experiment: Inhibition of Serine/threonine protein phosphatase 1 (PP1) mutant type C127S by compound was evaluated
Chain of Serine/threonine-protein phosphatase PP1-gamma catalytic subunit (Homo sapiens, UniProt P36873, C127S) (P36873 2-323 C127S limits assumed): as the sequence (P36873 2-323 limits assumed, change not shown) above, with C126S counted along it

[17] = molecular target: Serine/threonine-protein phosphatase PP1-gamma catalytic subunit (Homo sapiens, UniProt P36873, D208A); experiment: Inhibition of Serine/threonine protein phosphatase 1 (PP1) mutant type D208A by compound was evaluated
Chain of Serine/threonine-protein phosphatase PP1-gamma catalytic subunit (Homo sapiens, UniProt P36873, D208A) (P36873 2-323 D208A limits assumed): as the sequence (P36873 2-323 limits assumed, change not shown) above, with D207A counted along it

[18] = molecular target: Serine/threonine-protein phosphatase PP1-gamma catalytic subunit (Homo sapiens, UniProt P36873, D220V); experiment: Inhibition of Serine/threonine protein phosphatase 1 (PP1) mutant type D220V by compound was evaluated
Chain of Serine/threonine-protein phosphatase PP1-gamma catalytic subunit (Homo sapiens, UniProt P36873, D220V) (P36873 2-323 D220V limits assumed): as the sequence (P36873 2-323 limits assumed, change not shown) above, with D219V counted along it

[19] = molecular target: Serine/threonine-protein phosphatase PP1-gamma catalytic subunit (Homo sapiens, UniProt P36873, E275R); experiment: Inhibition of Serine/threonine protein phosphatase 1 (PP1) mutant type E275R by compound was evaluated
Chain of Serine/threonine-protein phosphatase PP1-gamma catalytic subunit (Homo sapiens, UniProt P36873, E275R) (P36873 2-323 E275R limits assumed): as the sequence (P36873 2-323 limits assumed, change not shown) above, with E274R counted along it

[20] = molecular target: Serine/threonine-protein phosphatase PP1-gamma catalytic subunit (Homo sapiens, UniProt P36873, N124D); experiment: Inhibition of Serine/threonine protein phosphatase 1 (PP1) mutant type N124D by compound was evaluated
Chain of Serine/threonine-protein phosphatase PP1-gamma catalytic subunit (Homo sapiens, UniProt P36873, N124D) (P36873 2-323 N124D limits assumed): as the sequence (P36873 2-323 limits assumed, change not shown) above, with N123D counted along it

[21] = molecular target: Serine/threonine-protein phosphatase PP1-gamma catalytic subunit (Homo sapiens, UniProt P36873, R221S); experiment: Inhibition of Serine/threonine protein phosphatase 1 (PP1) mutant type R221S by compound was evaluated
Chain of Serine/threonine-protein phosphatase PP1-gamma catalytic subunit (Homo sapiens, UniProt P36873, R221S) (P36873 2-323 R221S limits assumed): as the sequence (P36873 2-323 limits assumed, change not shown) above, with R220S counted along it

[22] = molecular target: Serine/threonine-protein phosphatase PP1-gamma catalytic subunit (Homo sapiens, UniProt P36873, R96A); experiment: Inhibition of Serine/threonine protein phosphatase 1 (PP1) mutant type R96A by compound was evaluated
Chain of Serine/threonine-protein phosphatase PP1-gamma catalytic subunit (Homo sapiens, UniProt P36873, R96A) (P36873 2-323 R96A limits assumed): as the sequence (P36873 2-323 limits assumed, change not shown) above, with R95A counted along it

[23] = molecular target: Serine/threonine-protein phosphatase PP1-gamma catalytic subunit (Homo sapiens, UniProt P36873, Y272F); experiment: Inhibition of Serine/threonine protein phosphatase 1 (PP1) mutant type Y272F by compound was evaluated
Chain of Serine/threonine-protein phosphatase PP1-gamma catalytic subunit (Homo sapiens, UniProt P36873, Y272F) (P36873 2-323 Y272F limits assumed): as the sequence (P36873 2-323 limits assumed, change not shown) above, with Y271F counted along it

**Q.** With `O=C(O)C1C2C[C@H](COC(=O)C3C[C@H]3c3ccccc3)[C@@H](O2)C1C(=O)O` (stereo not given in full) as the compound, how does the pIC50 [1] read?
**A.** Its pIC50 is 4.94.

**Q.** And the pIC50 [2]?
**A.** Its pIC50 is 5.40.

**Q.** And the pKi [3]?
**A.** Its pKi is 6.30.

**Q.** For `CCOC(=O)C1C(C(=O)O)C2CC[C@H]1O2` (stereo not given in full), which GI50 [4] is on record?
**A.** The GI50 was 185 µM.

**Q.** And the GI50 [5]?
**A.** Its GI50 is 437 µM.

**Q.** What about the GI50 [6] of the same compound?
**A.** The GI50 was 330 µM.

**Q.** And the pIC50 [7]?
**A.** The pIC50 was 5.53.

**Q.** What about the pIC50 [8] of the same compound?
**A.** Its pIC50 is 6.35.

**Q.** And the PP2A Selectivity [9]?
**A.** Its PP2A Selectivity is 6.6.

**Q.** And the GI50 [10]?
**A.** The GI50 was 266 µM.

**Q.** What about the GI50 [11] of the same compound?
**A.** The GI50 was 243 µM.

**Q.** Which results are given for `C=C1[C@@H](O)[C@@H]2O[C@]3(CC[C@H](/C=C/[C@@H](C)[C@@H]4CC(C)=C[C@@]5(O[C@H](C[C@@](C)(O)C(=O)O)CC[C@H]5O)O4)O3)CC[C@H]2O[C@@H]1[C@@H](O)C[C@H](C)[C@H]1O[C@@]2(CCCCO2)CC[C@H]1C` [OKADAIC ACID]?
**A.** pIC50 [12]: 7.35; pIC50 [1]: < 2.00; IC50 [13]: no inhibition; pIC50 [14]: 9.70; pIC50 [2]: 8.52; pIC50 [15]: < 5.30; pIC50 [16]: 7.11; pIC50 [17]: < 5.30; pIC50 [18]: 7.55; pIC50 [19]: 7.32; pIC50 [20]: < 5.30; pIC50 [21]: < 5.30; pIC50 [22]: 6.59; pIC50 [23]: 5.94
